Laboratory results from a melting point compilation (Tetko et al.; mined from patent text by program, amines drawn as free bases though some values may be those of a salt).

| Structure (SMILES) | melting point [°C] |
| --- | --- |
| CCOC(=O)Cn1nc(-c2ccc(OC)cc2)cc(C(=O)OCC)c1=O | 77.1 to 77.8 |
| CC(C)n1ncc2c(N(C)N)ncnc21 | 105 to 108 |
| O=C1CCc2ccc(C(F)(F)F)cc2CC1 | 78 |
| CC(=O)Oc1cc2c(c3ccccc13)Nc1ccccc1O2 | 152 to 155 |
| Cc1ccc(F)c(OCCCC(=O)O)c1 | 62 to 64 |
| O=C(O)c1cc(F)c(N2CCCC2)nc1NC1CC1 | 64 to 66 |
| CCCC=Cc1c(C(C)C)nc(C(C)C)c(C(=O)OCC)c1-c1ccc(-c2ccccc2)cc1 | 104 to 106 |
| Cc1[nH]c(=O)n(-c2cc(C(=O)OC(C)C)c(Cl)cc2F)c(=O)c1Br | 187 to 189 |
| CCOC(=O)CNc1c(C(C)C)cc(C(O)(C(F)(F)F)C(F)(F)F)cc1C(C)C | 72 to 73 |
| Cc1nc(Cl)c2sccc2n1 | 82 to 84 |
| COc1ccc(OC)c(C(=O)Nc2ccc(N3CCCC3)cc2C(C)=O)c1 | 137 to 140 |
| CC(C)C=CC(CC1CCCCC1)NC(=O)OC(C)(C)C (racemic) | 74 |
| COc1ccc2c(n1)c(CCNC(=O)c1ccco1)c1n2CCCC1 | 104 to 105 |
| CC(C)(C)OC(=O)CN1C(=O)[C@@H](NC(=O)OC(C)(C)C)CCc2ccccc21 | 145 to 147 |
| O=[N+]([O-])c1ccc(C=Cc2nc(Nc3ccc(O)cc3)c3ccccc3n2)o1 | 250 to 260 |
| CC(=O)N(CC(C)Cl)c1c(C)cccc1C (stereo not drawn) | 41 to 42 |
| CCOC(=O)c1c(C(F)(F)F)nc(C(F)(F)F)c(C(=O)OCC)c1N | 52 to 58 |
| Cc1ccc(C(=O)NC/C=C/c2ccccc2)cc1 | 134 |
| COc1cc2ncnc(N3CCN(C(=O)Nc4ccc(CC(C)C)cc4)CC3)c2cc1OC | 215 to 217 |
| N#Cc1cc(Cl)cc(Oc2ccc(CC(=O)Nc3ccc(CS(N)(=O)=O)cc3)cc2Br)c1 | 133 to 135 |
| CCOC(=O)c1c(C)nc(Cl)c([N+](=O)[O-])c1NC(C)CC (stereo not drawn) | 33 to 35 |
| CC(C)C(=O)O[C@H]1[C@H](C)OC(=O)[C@@H](NC(=O)OC(C)(C)C)COC(=O)[C@@H]1Cc1ccc(F)cc1 | 58 to 66 |
| CCCCC1(N2CCCC2)CC=C(c2[nH]c3ccccc3c2CCc2ccncc2)CC1 (stereo not drawn) | 187 to 195 |
| CC(C)(CC(=O)c1ccc(Cl)c(Cl)c1)C(=O)O | 137 to 138 |
| CC(C(=O)c1cccc(OCc2ccccc2)c1)N1CCC(n2c(=O)[nH]c3ccccc32)CC1 (stereo not drawn) | 138 to 140 |

| Structure (SMILES) | melting point [°C] |
| --- | --- |
| CCOC(=O)c1c(C(F)(F)F)nn(-c2c(Cl)cc(Cl)cc2Cl)c1N | 114 to 116 |
| CC1(C)CC(=O)c2c(-c3ccccc3)cn(-c3ccccn3)c2C1 | 160 to 162 |
| CN(C)C1(c2ccccc2)CCC(CNC(=O)N2CC=C(c3c[nH]c4ccc(Cl)cc34)CC2)CC1 (stereo not drawn) | 183 to 185 |
| CC(c1ccc(F)cc1)N(O)C(N)=O (stereo not drawn) | 127 to 129 |
| NC(=O)c1cc2c(Sc3ccccn3)cncc2s1 | 239 to 242 |
| CC(C)(C)NS(=O)(=O)c1cccc(NC(=O)c2cnn3c(C4CC4)cc(-c4ccc(C(F)(F)F)cc4)nc23)c1 | 258 to 259 |
| CN(C)CCC(Oc1ccc(N)cc1)c1ccccc1 (stereo not drawn) | 82 to 84 |
| CCOP(=O)(/C=C/c1cn(-c2ccccc2)nc1OCc1ccc(OCc2nc(-c3cccc(C(N)=O)c3)oc2C)c(OC)c1)OCC | 127 to 128 |
| O=c1[nH]c(Cl)nc2c1ncn2COCCO | > 310 |
| CCC(CC)N1C(=O)NCc2c1cc(C)nc2Oc1c(C)cc(C)cc1C | 197 to 199 |
| O=C1Nc2ccccc2C12COc1cc3c(cc12)CCCO3 (stereo not drawn) | 216 to 220 |
| O=C(Oc1c(F)c(F)c(F)c(F)c1F)c1ccc(F)c(F)c1Nc1ccc(I)cc1Cl | 108 to 110 |
| CC(=O)NCC1CN(c2ccc(N3CCN(c4nnc(N)s4)C(F)C3)cc2)C(=O)O1 (stereo not drawn) | 228 to 230 |
| Cc1noc(-c2nc(-c3c(F)cccc3F)nn2C)c1Cl | 94 to 97 |
| CN(C)C(=O)Cc1nc(-c2ccncc2)nc2c1c1ccc(Cl)cc1n2C | 231 to 232 |
| COCC(=O)Nc1ccc2ncnc(Nc3cccc(Br)c3)c2c1 | 190 to 191 |
| Cc1cnc2c(NC(=O)c3c(Cl)cccc3Cl)cccc2c1-n1ccc(=O)cc1 | 280 to 282 |
| CC(=O)Nc1ccc(Nc2c(NCc3ccco3)cc(C(=O)O)cc2S(=O)(=O)Nc2ccccc2NC(C)=O)cc1 | 258 |
| CC(=Cc1cc(O)c(O)c([N+](=O)[O-])c1)C(C)O (stereo not drawn) | 102 to 104 |
| Oc1c(Sc2ccccc2)sc2ccccc12 | 71 to 73 |
| C/C(=C\C=C\c1ccccc1)C(=O)NCCCCCC(=O)NO | 158 to 160 |
| CC1(CSc2ccc(N)c([N+](=O)[O-])c2)CC1(Cl)Cl (stereo not drawn) | 76 to 78 |
| NCC1CCCC(CNc2ncc3ncnc(Nc4ccc(F)c(Cl)c4)c3n2)C1 (stereo not drawn) | 145 to 148 |
| COC(=O)C1C(c2ccc(F)c(C)c2)=CCCC1(C)C (stereo not drawn) | 136 to 138 |
| COc1ccc(Cc2nc3c(c4c2[nH]c2ccccc24)C(O)CC(C)(C)C3)cc1 (stereo not drawn) | 146 |

| Structure (SMILES) | melting point [°C] |
| --- | --- |
| FC(F)(F)c1cccc(N2CCN(Cc3ccc4c(c3)NCCN4)CC2)c1 | 88 to 91 |
| COc1cc(OC)c(CSC(C)(C)CCO)c(OC)c1 | 69 to 72 |
| O=C(O)CCCCCc1cccc2c(I)ncn12 | 163 to 165 |
| CCOC(=O)C1=C(COCc2cc(=O)n(C)c(C)n2)NC(C)=C(C(=O)OC)C1c1cccc(Cl)c1Cl (stereo not drawn) | 153 to 158 |
| O=C(O)c1cc(Cc2c[nH]cn2)ccc1O | 254 to 258 |
| CC(=O)c1ccc(NS(C)(=O)=O)c(Oc2ccccc2S(C)(=O)=O)c1 | 189 to 191 |
| CC1(C)C=Cc2cc(C#N)c(N)cc2O1 | 137 to 138 |
| CC1(C)CC(=NO)c2cc(OCc3ccccc3)ccc2O1 | 105 to 108 |
| CCOC(=O)OC1=C(c2c(C)cc(C)cc2C)C(=O)N(N(C)C)C12CCN(OC)CC2 | 116 to 119 |
| CC(C)=NOc1cc(Cl)ccc1C#N | 83 to 84 |
| CC(C)(C)OC(=O)Cc1n[nH]c(=O)c2ccccc12 | 164 to 166 |
| CCOC(=O)C1=C(C)N=C(SCc2ccc(OC)cc2)N(C(=O)c2ccc([N+](=O)[O-])cc2)C1c1cccc([N+](=O)[O-])c1 (stereo not drawn) | 121 to 123 |
| O=C(CC(=O)C1CC1)c1cnccn1 | 111 to 112 |
| O=C(c1ccc(-c2cnc3c(c2)N(Cc2cc(F)ccc2F)CCN3)cc1)N1CCC[C@H]1CN1CCCC1 | 143 to 144 |
| COc1cc2c(cc1[N+](=O)[O-])NC(=O)CN(C(=O)OCc1ccccc1)C2 | 191 |
| Cc1cc2c(O)cccc2[nH]1 | 168 to 170 |
| Cc1ccc(-c2nc(C)c(C)c(=O)[nH]2)cc1 | 250 |
| COc1cc(CCC(=O)C2=C(Cl)CCC2)cc(OC)c1OC | 93 |
| CCOC(=O)c1nc2n(c(=O)c1O)CCN2CCO | 155 to 156 |
| Cn1c(C=O)c(-c2ccccc2)c2ccccc2c1=O | 181 to 182 |
| O=C(O)c1ccc(CCc2n[nH]c3c2c(=O)n(-c2ccccc2)c2ncccc32)cc1 | 318 to 320 |
| CCOC(=O)c1c(C(F)(F)F)nc2ccc(OC)cc2c1O | 184 |
| S=C(Nc1ccccc1Br)c1ccccc1 | 157 to 158 |
